In patent publication US7109243B2 (IRM LLC, priority 2003, dated 2006):

Legend:
[1] = target: Cathepsin S (Homo sapiens, UniProt P25774); assay: Cathepsin S inhibition assay (fluorogenic peptide substrate); format: biochemical; conditions: Table II, compounds of Formula I; read-out: Ki Cat. S
Summary of the method: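 Ki values come from nonlinear fitting of inhibited hydrolysis rates, taking free and total inhibitor concentrations as equal. Rates measured as rising fluorescence at 380/450 nm after reaction start with 50 μM final acetyl-HPVK-aminocarbamoylcoumarin.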

[2] = target: T1, Cathepsin K (Homo sapiens, UniProt P43235); assay: Cathepsin K inhibition assay (fluorogenic peptide substrate); selectivity ratio vs cathepsin S; format: biochemical; conditions: ratio of cathepsin K inhibition constant to cathepsin S inhibition constant; Table II
T1 sequence (P43235 115-329): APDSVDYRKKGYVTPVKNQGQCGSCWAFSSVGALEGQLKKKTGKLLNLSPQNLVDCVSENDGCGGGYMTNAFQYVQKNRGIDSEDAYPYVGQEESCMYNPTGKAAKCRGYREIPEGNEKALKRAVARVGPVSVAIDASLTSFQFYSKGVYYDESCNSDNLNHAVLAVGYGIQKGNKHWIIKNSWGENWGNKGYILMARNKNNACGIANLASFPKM
Summary of the method: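 Fluorogenic kinetic assay, started with acetyl-Lys-His-Pro-Lys-aminocarbamoylcoumarin at 40 μM final, hydrolysis followed at ex 380/em 450 nm. Apparent inhibition constants from progress curves, converted to competitive inhibition constants. Selectivity expressed as isozyme inhibition constant divided by cathepsin S inhibition constant.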

Cathepsin S, sequence (P25774 115-331, species assumed): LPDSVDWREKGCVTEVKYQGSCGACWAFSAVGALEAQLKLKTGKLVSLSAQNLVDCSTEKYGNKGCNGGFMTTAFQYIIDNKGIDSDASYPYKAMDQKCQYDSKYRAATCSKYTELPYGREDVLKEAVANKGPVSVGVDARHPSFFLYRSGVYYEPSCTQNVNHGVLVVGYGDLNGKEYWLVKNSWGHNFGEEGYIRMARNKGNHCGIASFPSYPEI

Row | SMILES | Ki [1] | Selectivity for Cat. S over Cat. K [2]
1 | COc1ccc(NCCNC(=O)[C@H](CC2CCCCC2)NC(=O)c2ccc(F)c(F)c2)cc1 [Compound 146, (S)-N-{2-Cyclohexyl-1-[2-(4-methoxy-phenylamino)-ethylcarbamoyl]-ethyl}-3,4-difluoro-benzamide] | < 100 nM | +++ (+++, >1000)
2 | CC(=O)N1CCN(c2ccc(OCC(=O)N[C@@H](CC3CCCCC3)C(=O)NCCNc3ccc(OC(F)(F)F)cc3)cc2)CC1 [Compound 15, (S)-2-{2-[4-(4-Acetyl-piperazin-1-yl)-phenoxy]-acetylamino}-3-cyclohexyl-N-[2-(4-trifluoromethoxy-phenylamino)-ethyl]-propionamide] | < 1000 nM | + (+, >10)
3 | COc1ccc(NCCNC(=O)[C@H](Cc2ccc(Oc3ccc(C)cc3)cc2)NC(=O)c2cccc(C)c2)cc1 [Compound 45, (S)-N-[1-[2-(4-Methoxy-phenylamino)-ethylcarbamoyl]-2-(4-p-tolyloxy-phenyl)-ethyl]-3-methyl-benzamide] | < 100 nM | +++ (+++, >1000)
4 | COc1ccc(NCCNC(=O)[C@H](CC2CCCCC2)NC(=O)c2sc(N)nc2C)cc1 [Compound 114, (S)-2-Amino-4-methyl-thiazole-5-carboxylic acid {2-cyclohexyl-1-[2-(4-methoxy-phenylamino)-ethylcarbamoyl]-ethyl}-amide] | < 100 nM | ++ (++, >100)
5 | COc1ccc(NCCNC(=O)[C@H](Cc2ccccc2)NC(=O)c2cnn(-c3ccccc3)c2C(F)(F)F)cc1 [Compound 41, (S)-1-Phenyl-5-trifluoromethyl-1H-pyrazole-4-carboxylic acid {1-[2-(4-methoxy-phenylamino)-ethylcarbamoyl]-2-phenyl-ethyl}-amide] | < 1000 nM | ++ (++, >100)
6 | COc1ccc(NCCNC(=O)[C@H](Cc2ccccc2)NC(=O)Nc2ccc(Oc3ccccc3)cc2)cc1 [Compound 89, (S)-N-[2-(4-Methoxy-phenylamino)-ethyl]-2-[3-(4-phenoxy-phenyl)-ureido]-3-phenyl-propionamide] | < 1000 nM | + (+, >10)
7 | O=C(Cc1ccc(F)c(F)c1)N[C@@H](CC1CCCCC1)C(=O)NCCNc1ccc(F)cc1 [Compound 99, 3-Cyclohexyl-2-(S)-[2-(3,4-difluoro-phenyl)-acetylamino]-N-[2-(4-fluoro-phenylamino)-ethyl]-propionamide] | < 100 nM | ++ (++, >100)
8 | COc1ccc(NCCNC(=O)[C@H](CC2CCCC2)NC(=O)c2ccc(-c3cccc(C(F)(F)F)c3)o2)cc1 [Compound 6, N-((S)-1-(2-(4-methoxyphenylamino)ethylcarbamoyl)-2-cyclopentylethyl)-5-(3-(trifluoromethyl)phenyl)furan-2-carboxamide] | < 100 nM | ++ (++, >100)
9 | COc1cccc(-c2cccc(C(=O)N[C@@H](CC3CCCCC3)C(=O)NCCNc3ccc(OC(F)(F)F)cc3)c2)c1 [Compound 74, 3′-Methoxy-biphenyl-3-carboxylic acid (S)-{2-cyclohexyl-1-[2-(4-trifluoromethoxy-phenylamino)-ethylcarbamoyl]-ethyl}-amide] | < 100 nM | +++ (+++, >1000)
10 | O=C(N[C@@H](CC1CCCCC1)C(=O)NCCNc1ccc(F)cc1)c1ccc(-c2cccc(C(F)(F)F)c2)o1 [Compound 85, 5-(3-Trifluoromethyl-phenyl)-furan-2-carboxylic acid (S)-{2-cyclohexyl-1-[2-(4-fluoro-phenylamino)-ethylcarbamoyl]-ethyl}-amide] | < 100 nM | ++ (++, >100)
11 | CC(=O)N1CCC(C(=O)N[C@@H](CC2CCCCC2)C(=O)NCCNc2ccc(F)cc2)CC1 [Compound 79, 1-Acetyl-piperidine-4-carboxylic acid (S)-{2-cyclohexyl-1-[2-(4-fluoro-phenylamino)-ethylcarbamoyl]-ethyl}-amide] | < 10000 nM | + (+, >10)
12 | COc1ccc(NCCNC(=O)[C@H](CC2CCCCC2)NC(=O)c2cc(OC)cc(OC)c2)cc1 [Compound 180, (S)-N-{2-Cyclohexyl-1-[2-(4-methoxy-phenylamino)-ethylcarbamoyl]-ethyl}-3,5-dimethoxy-benzamide] | < 100 nM | + (+, >10)
13 | O=C(N[C@@H](CC1CCCCC1)C(=O)NCCNc1ccc(OC(F)(F)F)cc1)c1ccc(Oc2ccccc2)cc1 [Compound 141, N-{2-cyclohexyl-1-(S)-[2-(4-trifluoromethoxy-phenylamino)-ethylcarbamoyl]-ethyl}-4-phenoxy-benzamide] | < 100 nM | + (+, >10)
14 | O=C(N[C@@H](CC1CCCCC1)C(=O)NCCNc1ccc(OC(F)(F)F)cc1)C1CCN(c2ncc(Br)cn2)CC1 [Compound 81, 1-(5-Bromo-pyrimidin-2-yl)-piperidine-4-carboxylic acid (S)-{2-cyclohexyl-1-[2-(4-trifluoromethoxy-phenylamino)-ethylcarbamoyl]-ethyl}-amide] | < 1000 nM | ++ (++, >100)

Results, then the compound that gave them:

Row | Ki [1] | Selectivity for Cat. S over Cat. K [2] | SMILES
15 | < 100 nM | + (+, >10) | COc1ccc(NCCNC(=O)[C@H](Cc2cccc(C)c2)NC(=O)c2cccc(C)c2)cc1 [Compound 238, (S)-N-{1-[2-(4-Methoxy-phenylamino)-ethylcarbamoyl]-2-m-tolyl-ethyl}-3-methyl-benzamide]
16 | < 1000 nM | + (+, >10) | COc1ccc(NCCNC(=O)C(NC(=O)c2cccc(C)c2)C(C)c2ccc([N+](=O)[O-])cc2)cc1 (stereo not drawn) [Compound 266, N-[1-[2-(4-Methoxy-phenylamino)-ethylcarbamoyl]-2-(4-nitro-phenyl)-propyl]-3-methyl-benzamide]
17 | < 100 nM | +++ (+++, >1000) | COc1ccc(NCCNC(=O)[C@H](Cc2ccc(F)cc2)NC(=O)c2cccc(C)c2)cc1 [Compound 245, (S)-N-{2-(4-Fluoro-phenyl)-1-[2-(4-methoxy-phenylamino)-ethylcarbamoyl]-ethyl}-3-methyl-benzamide]
18 | < 10000 nM | + (+, >10) | COc1ccc(NCCNC(=O)C(NC(=O)c2cccc(C)c2)c2cccs2)cc1 (stereo not drawn) [Compound 226, N-{[2-(4-Methoxy-phenylamino)-ethylcarbamoyl]-thiophen-2-yl-methyl}-3-methyl-benzamide]
19 | < 100 nM | ++ (++, >100) | O=C(Cc1ccc(C(F)(F)F)cc1)N[C@@H](CC1CCCCC1)C(=O)NCCNc1ccc(F)cc1 [Compound 325, 3-Cyclohexyl-N-[2-(4-fluoro-phenylamino)-ethyl]-2-(S)-[2-(4-trifluoromethyl-phenyl)-acetylamino]-propionamide]
20 | < 100 nM | ++ (++, >100) | CC(C(=O)N[C@@H](CC1CCCCC1)C(=O)NCCNc1ccc(F)cc1)c1ccc(Cl)cc1 (stereo partly drawn) [Compound 312, 2-(4-Chloro-phenyl)-N-{2-cyclohexyl-1-(S)-[2-(4-fluoro-phenylamino)-ethylcarbamoyl]-ethyl}-propionamide]
21 | < 1000 nM | +++ (+++, >1000) | COc1ccc(NCCNC(=O)C(NC(=O)c2cccc(C)c2)c2ccccc2Cl)cc1 (stereo not drawn) [Compound 216, N-{(2-Chloro-phenyl)-[2-(4-methoxy-phenylamino)-ethylcarbamoyl]-methyl}-3-methyl-benzamide]
22 | < 100 nM | + (+, >10) | COc1ccc(NCCNC(=O)[C@H](CC2CCCCC2)NC(=O)c2ccc(Br)s2)cc1 [Compound 182, (S)-5-Bromo-thiophene-2-carboxylic acid {2-cyclohexyl-1-[2-(4-methoxy-phenylamino)-ethylcarbamoyl]-ethyl}-amide]
23 | < 1000 nM | ++ (++, >100) | COc1ccc(NCCNC(=O)[C@H](CC2CCCCC2)NC(=O)c2cccc(CN)c2)cc1 [Compound 199, (S)-3-Aminomethyl-N-{2-cyclohexyl-1-[2-(4-methoxy-phenylamino)-ethylcarbamoyl]-ethyl}-benzamide]
24 | < 1000 nM | + (+, >10) | O=C(N[C@@H](CC1CCCCC1)C(=O)NCCNc1ccc(OC(F)(F)F)cc1)c1ccc(-c2cccc(F)c2)cc1 [Compound 198, (S)-3′-Fluoro-biphenyl-4-carboxylic acid {2-cyclohexyl-1-[2-(4-trifluoromethoxy-phenylamino)-ethylcarbamoyl]-ethyl}-amide]
25 | < 1000 nM | ++ (++, >100) | COc1ccc(NCCNC(=O)[C@H](Cc2ccc(C(C)(C)C)cc2)NC(=O)c2cccc(C)c2)cc1 [Compound 255, (S)-N-{2-(4-tert-Butyl-phenyl)-1-[2-(4-methoxy-phenylamino)-ethylcarbamoyl]-ethyl}-3-methyl-benzamide]
26 | < 100 nM | +++ (+++, >1000) | COc1ccc(NCCNC(=O)[C@H](Cc2ccc(O)cc2)NC(=O)c2cccc(C)c2)cc1 [Compound 228, (S)-N-{2-(4-Hydroxy-phenyl)-1-[2-(4-methoxy-phenylamino)-ethylcarbamoyl]-ethyl}-3-methyl-benzamide]
27 | < 100 nM | +++ (+++, >1000) | COc1ccc(NCCNC(=O)[C@H](Cc2ccc(C#N)cc2)NC(=O)c2cccc(C)c2)cc1 [Compound 240, (S)-N-{2-(4-Cyano-phenyl)-1-[2-(4-methoxy-phenylamino)-ethylcarbamoyl]-ethyl}-3-methyl-benzamide]
